For one molecule, kcat results are on record in US12667106B2, “Stabilized mutants of quorum quenching lactonase and use thereof in treatment of pathogens” (priority 2019, dated 2026).

Each structure is given as a SMILES string.

The kcat is the number of substrate molecules converted per active site and unit of time at saturation.

Test [1] deals with putative parathion hydrolase (PPH) from M. tuberculosis, variant PPH_R2:P8-D12, H171Y (H172Y in SEQ ID NO: 1 numbering; SEQ ID NO: 3), MBP fusion SEQ ID NO: 12 (Mycobacterium tuberculosis, UniProt P9WHN9, H168Y). It is filed as biochemical. The following applies: pH 8.3.
Test [2] deals with putative parathion hydrolase (PPH) from M. tuberculosis, variant PPH_R2:P4-D5, G58V (G59V in SEQ ID NO: 1 numbering; SEQ ID NO: 2), MBP fusion SEQ ID NO: 11 (Mycobacterium tuberculosis, UniProt P9WHN9, G55V). It is filed as biochemical. The following applies: pH 8.3.

Turning to `CCCC(=O)CC(=O)N[C@H]1CCOC1=O` [C6-oxo-HSL, N-(3-oxo-hexanoyl)-homoserine lactone], the figures for the kcat in test [1] and in test [2] were 10.16 ± 1.46 s⁻¹ and 18.66 ± 1.16 s⁻¹, respectively.
